Measured values reported in patent publication US6844435B2, “Heterocyclic compounds useful as inhibitors of tyrosine kinases” (Boehringer Ingelheim Pharmaceuticals, Inc., priority 2000, dated 2005).

Row | Structure (SMILES) | melting point
1 | Cn1c(Nc2c(Cl)cccc2Cl)nc2ccc3nc(C4=CC5C=CC4N5C(=O)OCc4ccccc4)[nH]c(=O)c3c21 (stereo not drawn) | > 275 °C (dec.)
2 | Cn1c(Nc2c(Cl)cccc2Cl)nc2ccc3nc(C4=CC5C=CC4N5)[nH]c(=O)c3c21 (stereo not drawn) | > 300 °C
3 | C/C(=C\c1cc([N+](=O)[O-])cc([N+](=O)[O-])c1)c1nc2ccc3nc(Nc4c(Cl)cccc4Cl)n(C)c3c2c(=O)[nH]1 | 315 to 317 °C (dec.)
4 | CCn1c(Nc2c(Cl)cccc2Cl)nc2ccc3nc[nH]c(=O)c3c21 [Example 5, 2-(2,6-Dichlorophenylamino)-1-ethyl-1,8-dihydro-9H-imidazo[4,5-f]quinazoline-9-one] | > 300 °C
5 | Cn1c(Nc2c(Cl)cccc2Cl)nc2ccc3nc(-c4ccccc4)[nH]c(=O)c3c21 [Example 7, 2-(2,6-Dichlorophenylamino)-1-methyl-7-phenyl-1,8-dihydro-9H-imidazo[4,5-f]quinazoline-9-one] | > 300 °C
6 | Cn1c(Nc2c(Cl)cccc2Cl)nc2ccc3nc(-c4ccoc4)[nH]c(=O)c3c21 [Example 8, 2-(2,6-Dichlorophenylamino)-1-methyl-7-furan-3-yl-1,8-dihydro-9H-imidazo[4,5-f]quinazoline-9-one] | > 300 °C
7 | Cn1c(Nc2c(Cl)cccc2Cl)nc2ccc3nc(-c4cccc([N+](=O)[O-])c4)[nH]c(=O)c3c21 [Example 18] | > 300 °C
8 | Cn1c(Nc2c(Cl)cccc2Cl)nc2ccc3nc(-c4cccc(N)c4)[nH]c(=O)c3c21 [Example 19] | 200 °C (dec.)
9 | CCNC(=O)Nc1cccc(-c2nc3ccc4nc(Nc5c(Cl)cccc5Cl)n(C)c4c3c(=O)[nH]2)c1 [Example 20] | 251 °C (dec.)
10 | C=Cc1nc2ccc3nc(Nc4c(Cl)cccc4Cl)n(C)c3c2c(=O)[nH]1 [Example 21] | 278 to 284 °C (dec.)
11 | Cn1c(Nc2c(Cl)cccc2Cl)nc2ccc3nc(-c4cccs4)[nH]c(=O)c3c21 [Example 22] | > 300 °C
12 | Cn1c(Nc2c(Cl)cccc2Cl)nc2ccc3nc(-c4scc(S(C)(=O)=O)c4Cl)[nH]c(=O)c3c21 [Example 23] | 280 °C
13 | Cn1c(Nc2c(Cl)cccc2Cl)nc2ccc3nc(-c4csc(-c5cccc([N+](=O)[O-])c5)n4)[nH]c(=O)c3c21 [Example 24] | > 300 °C
14 | Cn1c(Nc2c(Cl)cccc2Cl)nc2ccc3nc(-c4ncc[nH]4)[nH]c(=O)c3c21 [Example 25] | > 300 °C
15 | Cn1c(Nc2c(Cl)cccc2Cl)nc2ccc3nc(-c4cnc(-c5ccccc5)o4)[nH]c(=O)c3c21 [Example 26] | > 290 °C
16 | Cn1c(Nc2c(Cl)cccc2Cl)nc2ccc3nc(C(N)=O)[nH]c(=O)c3c21 [Example 27] | > 300 °C

Row | Structure (SMILES) | melting point
17 | CC(C)=Cc1nc2ccc3nc(Nc4c(Cl)cccc4Cl)n(C)c3c2c(=O)[nH]1 [Example 28] | > 300 °C
18 | Cn1c(Nc2c(Cl)cccc2Cl)nc2ccc3nc(-c4ccccn4)[nH]c(=O)c3c21 [Example 29] | > 300 °C
19 | Cn1c(Nc2c(Cl)cccc2Cl)nc2ccc3nc(-c4cccnc4)[nH]c(=O)c3c21 [Example 30] | > 300 °C
20 | Cn1c(Nc2c(Cl)cccc2Cl)nc2ccc3nc(Nc4ccccc4)[nH]c(=O)c3c21 [Example 31] | 185 to 192 °C
21 | Cn1c(Nc2c(Cl)cccc2Cl)nc2ccc3nc(-c4nc(-c5ccc(OC(F)(F)F)cc5)no4)[nH]c(=O)c3c21 [Example 32] | > 300 °C
22 | C=C(C)c1nc2ccc3nc(Nc4c(Cl)cccc4Cl)n(C)c3c2c(=O)[nH]1 [Example 33] | > 300 °C
23 | Cn1c(Nc2c(Cl)cccc2Cl)nc2ccc3nc(Cc4ccccc4)[nH]c(=O)c3c21 [Example 34] | > 250 °C (dec.)
24 | Cn1c(Nc2c(Cl)cccc2Cl)nc2ccc3nc(C4=CCCC4)[nH]c(=O)c3c21 [Example 35] | 295 °C (dec.)
25 | Cn1c(Nc2c(Cl)cccc2Cl)nc2ccc3nc(-c4csc(-c5cccc(N)c5)n4)[nH]c(=O)c3c21 [Example 36] | 240 °C (dec.)
26 | CCOC(=O)c1nc2ccc3nc(Nc4c(Cl)cccc4Cl)n(C)c3c2c(=O)[nH]1 [Example 37] | 275 to 277 °C
27 | Cc1ccccc1-c1nc2ccc3nc(Nc4c(Cl)cccc4Cl)n(C)c3c2c(=O)[nH]1 [Example 38] | > 300 °C
28 | Cn1c(Nc2c(Cl)cccc2Cl)nc2ccc3nc(-c4cc5ccccc5o4)[nH]c(=O)c3c21 [Example 39] | > 300 °C
29 | Cn1c(Nc2c(Cl)cccc2Cl)nc2ccc3nc(CC4=CCCC4)[nH]c(=O)c3c21 [Example 40] | 258 °C (dec.)
30 | Cn1c(Nc2c(Cl)cccc2Cl)nc2ccc3nc(C(=O)NCCO)[nH]c(=O)c3c21 [Example 41] | 265 to 268 °C
31 | Cn1c(Nc2c(Cl)cccc2Cl)nc2ccc3nc(C(=O)O)[nH]c(=O)c3c21 [Example 42] | > 300 °C
32 | Cn1c(Nc2c(Cl)cccc2Cl)nc2ccc3nc(-c4nc5ccccc5[nH]4)[nH]c(=O)c3c21 [Example 43] | > 300 °C

Now from value to compound:

Row | melting point | Structure (SMILES)
33 | 278 °C (dec.) | C/C=C(\C)c1nc2ccc3nc(Nc4c(Cl)cccc4Cl)n(C)c3c2c(=O)[nH]1 [Example 45]
34 | > 300 °C | Cc1ncc(-c2nc3ccc4nc(Nc5c(Cl)cccc5Cl)n(C)c4c3c(=O)[nH]2)o1 [Example 46]
35 | > 300 °C | Cn1c(Nc2c(Cl)cccc2Cl)nc2ccc3nc(C(=O)c4c[nH]c5ccccc45)[nH]c(=O)c3c21 [Example 47]
36 | 173 to 174 °C | Cn1c(Nc2c(Cl)cccc2Cl)nc2ccc3nc(C4=CC(N5CCNCC5)CC4)[nH]c(=O)c3c21 (stereo not drawn) [Example 48]
37 | 279 °C (dec.) | CC(C)c1nc2ccc3nc(Nc4c(Cl)cccc4Cl)n(C)c3c2c(=O)[nH]1 [Example 49]
38 | 283 to 284 °C | Cn1c(Nc2c(Cl)cccc2Cl)nc2ccc3nc(C4CCCC4)[nH]c(=O)c3c21 [Example 50]
39 | 295 °C (dec.) | Cn1c(Nc2c(Cl)cccc2Cl)nc2ccc3nc(C(=O)N4CCCC4)[nH]c(=O)c3c21 [Example 52]
40 | > 300 °C | CCc1nc2ccc3nc(Nc4c(Cl)cccc4Cl)n(C)c3c2c(=O)[nH]1 [Example 53]
41 | 255 °C | CN1CCC=C(c2nc3ccc4nc(Nc5c(Cl)cccc5Cl)n(C)c4c3c(=O)[nH]2)C1 [Example 54]
42 | 289 to 292 °C | Cn1c(Nc2c(Cl)cccc2Cl)nc2ccc3nc(-c4ccc(-c5ccccc5[N+](=O)[O-])o4)[nH]c(=O)c3c21 [Example 55]
43 | 280 to 283 °C | Cn1c(Nc2c(Cl)cccc2Cl)nc2ccc3nc(-c4ccc(Br)o4)[nH]c(=O)c3c21 [Example 57]
44 | 304 to 310 °C (dec.) | Cc1ccoc1-c1nc2ccc3nc(Nc4c(Cl)cccc4Cl)n(C)c3c2c(=O)[nH]1 [Example 58]
45 | > 300 °C | Cn1c(Nc2c(Cl)cccc2Cl)nc2ccc3nc(C4CC4)[nH]c(=O)c3c21 [Example 59]
46 | 280 °C (dec.) | Cn1c(Nc2c(Cl)cccc2Cl)nc2ccc3nc(C(=O)c4ccccc4)[nH]c(=O)c3c21 [Example 60]
47 | 215 °C (dec.) | CN1CCN(S(=O)(=O)c2cccc(-c3nc4ccc5nc(Nc6c(Cl)cccc6Cl)n(C)c5c4c(=O)[nH]3)c2)CC1 [Example 61]
48 | 198 to 204 °C | CNc1nc2ccc3nc(Nc4c(Cl)cccc4Cl)n(C)c3c2c(=O)[nH]1 [Example 62]
49 | > 300 °C | CC(C)=C(C)c1nc2ccc3nc(Nc4c(Cl)cccc4Cl)n(C)c3c2c(=O)[nH]1 [Example 63]

Row | melting point | Structure (SMILES)
50 | 257 to 260 °C | CCCCCc1nc2ccc3nc(Nc4c(Cl)cccc4Cl)n(C)c3c2c(=O)[nH]1 [Example 64]
51 | 168 to 170 °C | Cn1c(Nc2c(Cl)cccc2Cl)nc2ccc3nc(C4=CC(N5CCN(C(=O)OC(C)(C)C)CC5)CC4)[nH]c(=O)c3c21 (stereo not drawn) [Example 65]
52 | 285 °C | Cn1c(Nc2c(Cl)cccc2Cl)nc2ccc3nc(C4=CC(O)CC4)[nH]c(=O)c3c21 (stereo not drawn) [Example 66]
53 | 189 °C | Cn1c(Nc2c(Cl)cccc2Cl)nc2ccc3nc(-c4cccc(S(=O)(=O)N5CCN(C(=O)OC(C)(C)C)CC5)c4)[nH]c(=O)c3c21 [Example 67]
54 | 210 °C | Cn1c(Nc2c(Cl)cccc2Cl)nc2ccc3nc(-c4cccc(S(=O)(=O)N5CCNCC5)c4)[nH]c(=O)c3c21 [Example 68]
55 | > 295 °C (dec.) | Cn1c(Nc2c(Cl)cccc2Cl)nc2ccc3nc(C4=CCC(C#N)C4)[nH]c(=O)c3c21 (stereo not drawn) [Example 69]
56 | 288 to 290 °C | C/C(=C\c1cccc(C#N)c1)c1nc2ccc3nc(Nc4c(Cl)cccc4Cl)n(C)c3c2c(=O)[nH]1 [Example 70]
57 | 290 to 292 °C | C/C(=C\c1ccccc1[N+](=O)[O-])c1nc2ccc3nc(Nc4c(Cl)cccc4Cl)n(C)c3c2c(=O)[nH]1 [Example 71]
58 | > 215 °C (dec.) | CC(=O)C1CC=C(c2nc3ccc4nc(Nc5c(Cl)cccc5Cl)n(C)c4c3c(=O)[nH]2)C1 (stereo not drawn) [Example 72]
59 | 209 °C | Cn1c(Nc2c(Cl)cccc2Cl)nc2ccc3nc(-c4csc([C@H]5CCCN5C(=O)OCc5ccccc5)n4)[nH]c(=O)c3c21 [Example 73]
60 | 163 to 169 °C | Cn1c(Nc2c(Cl)cccc2Cl)nc2ccc3nc(-c4csc([C@@H]5CCCC[C@H]5NC(=O)OCc5ccccc5)n4)[nH]c(=O)c3c21 [Example 75]
61 | 155 to 160 °C | Cn1c(Nc2c(Cl)cccc2Cl)nc2ccc3nc(-c4csc(CC5CCCN(C(=O)OCc6ccccc6)C5)n4)[nH]c(=O)c3c21 (stereo not drawn) [Example 76]
62 | 295 to 300 °C (dec.) | Cn1c(Nc2c(Cl)cccc2Cl)nc2ccc3nc(-c4csc([C@@H]5CCCC[C@H]5N)n4)[nH]c(=O)c3c21 [Example 77]
63 | 161 to 166 °C | Cn1c(Nc2c(Cl)cccc2Cl)nc2ccc3nc(-c4csc(CC5CCCNC5)n4)[nH]c(=O)c3c21 (stereo not drawn) [Example 78]
64 | 295 °C (dec.) | Cc1nc(-c2nc3ccc4nc(Nc5c(Cl)cccc5Cl)n(C)c4c3c(=O)[nH]2)cs1 [Example 79]
65 | 310 to 313 °C | C/C(=C\c1ccccc1N)c1nc2ccc3nc(Nc4c(Cl)cccc4Cl)n(C)c3c2c(=O)[nH]1 [Example 80]
66 | > 300 °C | Cn1c(Nc2c(Cl)cccc2Cl)nc2ccc3nc(C4=CC(=O)CC4)[nH]c(=O)c3c21 [Example 81]
